Values of other authors in patent publication US7333894B2, “Methods for the diagnosis of hemodialysis patients and utilization of such methods to improve the administration of intravenous levocarnitine treatments to hemodialysis patients” (Sigma-Tau Pharmaceuticals, Inc., priority 2002, dated 2008).

How the values were obtained:
[1] = hemodialysis patient, one dialysis session
[2] = intravenous administration at the end of a dialysis session, ESRD patients

C[N+](C)(C)C[C@H](O)CC(=O)[O-] [carnitine, levocarnitine]
carnitine present in the plasma removed during a dialysis session [1]: more than 70%
time for plasma carnitine levels to return to pre-dialysis baseline levels [2]: 10 to 24 h
